Test results as given in patent publication US20100273189A1, “NON SEPARATION ASSAYS WITH SELECTIVE SIGNAL INHIBITORS” (BECKMAN COULTER, INC., priority 2009, published 2010).
Where “and” joins values, the source holds several entries; their conditions need not be identical. Equal values may be shown once.

Assays:
Type in all cases: biochemical
[1] = tested on: CK-MB; test: CK-MB assay, AK-Ab1 particle + HRP-Ab2 conjugate; details: for RLU: replicates
Procedure: This example describes a method of detecting CK-MB (Creatine Kinase Myocardial Band) using an AK-Abl particle prepared as set forth in Example 3 and a HRP-Ab2 conjugate prepared as set forth in Example 4 where Ab2 represents an antibody to CK-MB. This method employed ascorbic acid to decrease background signal.
HRP-Ab2 conjugate suspensions were prepared at 1.0 μg/mL and contained either 0 or 1 mM ascorbic acid. Samples consisted of human serum samples with the indicated mounts of CK-MB added or no CK-MB as a control. The test procedure consisted of adding 15 μL of 1.0 μg/mL HRP-Ab2 conjugate and 35 μL of MES buffer containing 1 mg/mL BSA and 1 mg/mL MIgG, pH 5.9 to the reaction vessel. Next, 25 μL of patient serum sample was added, followed by 25 μL of 1.0 mg/mL AK-Abl conjugate suspension thereby obtaining 100 μL of total volume in the reaction vessel. After 15.2 minutes, 100 μL of trigger solution A was added to the reaction vessel and the light intensity was recorded on the modified DxI instrument. Chemiluminescence intensity is expressed in Relative Light Units (RLU).

[2] = tested on: biotin-HRP; test: Effect of ascorbic acid incubation time on chemiluminescence, Dynal M-280 biotin-HRP system; details: incubation time 80-330 seconds; ascorbic acid 0-200 μM; in words
Procedure: The effect of the length of time that a sample is exposed to ascorbic acid on the observed reduction of chemiluminescence intensity was investigated in a series of experiments employing the Dynal M-280 PMP particles and biotin-HRP system described in Example 11. Briefly, biotin-labeled PMPs, and various biotin-HRP/HRP solutions were allowed to bind and ascorbic acid solutions added. After a delay period ranging from 80-330 seconds, trigger solution A was injected and the chemiluminescence intensity integrated. The biotin-HRP/HRP solutions contained a total of 200 ng/mL HRP in the proportion 1:200, 8:192, and 32:168 biotin-HRP:HRP. Trials were run using various concentrations of ascorbic acid as the Sample in water at 0, 25, 50 100 and 200 μM.

[3] = biological target: T1, HRP (Armoracia rusticana, UniProt P00433); test: HRP model system on silica particles, with and without ascorbic acid; details: 150 μM Ascorbate; for RLU: replicates
T1 construct: purchased Roche Diagnostics, Indianapolis, Ind., USA
T1 sequence (P00433 31-338 limits assumed): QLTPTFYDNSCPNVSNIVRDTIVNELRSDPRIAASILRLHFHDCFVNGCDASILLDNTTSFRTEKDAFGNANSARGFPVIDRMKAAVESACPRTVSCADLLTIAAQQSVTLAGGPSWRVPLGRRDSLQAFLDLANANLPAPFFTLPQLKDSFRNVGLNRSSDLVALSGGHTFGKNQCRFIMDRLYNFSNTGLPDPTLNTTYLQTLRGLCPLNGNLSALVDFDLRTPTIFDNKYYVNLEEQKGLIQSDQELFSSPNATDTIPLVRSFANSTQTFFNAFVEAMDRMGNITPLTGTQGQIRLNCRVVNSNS
Procedure: In order to further investigate the effect of specific solid phase particles on the assays described herein, a comparison of a variety of particle types was conducted, including silica, polymethylmethacrylate (PMMA). Carboxyl modified PMMA particles (PolyAn GmbH, Berlin) were labeled with AK and biotin as described in Example 3, followed by coating with streptavidin. Silica particles were reacted with 3-aminopropylsiloxane in 1 mM acetic acid to provide an amine reactive group. The amine functional groups were reacted with AK-3 and biotin-LC-sulfoNHS, followed by coating with streptavidin.
Signal generation with Silica and PMMA particles. Assays using the HRP model system, as generally described in Example 1, were conducted on silica particles and PMMA particles, with and without ascorbic acid in the reaction mixture. The assays were run on a modified DxI instrument as described above. The assay conditions consisted of combining 45 μL BUFFER II (with or without ascorbic acid), 25 μL of particle suspension, and 15 μL of sample and incubating for 30 min. Then 100 μL of trigger solution A was added to the reaction vessel and the light intensity was recorded.

[4] = tested on: cTnI; test: cTnI assay with various magnetic particles, without and with ascorbic acid 150 μM
Description: The effectiveness of ascorbic acid in improving assay performance in microparticle formats was investigated using a cTnI analyte with various magnetic particles. Magnetic particles evaluated included LodeStars PMP, latex PMP and carboxylate-modified polystyrene latex PMP. “Lot B Magnetic Particle” are 6.2 μm diameter carboxyl PMPs (Bangs Laboratories, Fishers, Ind.). “Lot D Magnetic Particle” are 8.1 μm diameter carboxyl PMPs (Bangs Laboratories). “Lot F Latex Particle” are 3.1 μm diameter carboxyl PMPs (Seradyn Products, Thermo-Fisher, Indianapolis, Ind.). “CML PMP” are […] diameter carboxylate modified latex particles (Invitrogen, Carlsbad, Calif.). LodeStars PMP were labeled with AK4 and biotin by EDC coupling and overcoated with streptavidin following the general protocol of Example 3. Lots B, D, and F and CML PMP were labeled with AK-BSA-biotin according to Example 1. The particles were then coated with streptavidin and bound to biotin-labeled anti-cTnI.
In an initial experiment, the cTnI assay was conducted without ascorbic acid in the reaction mix.
In this case, LodeStars particles retain much more specific signal than the other particle types, even while the background decreases almost […].

[5] = With Ascorbate, S1, CK-MB 600 pg/mL
[6] = With Ascorbate, S2, CK-MB 3200 pg/mL
[7] = With Ascorbate, S3, CK-MB 9150 pg/mL
[8] = With Ascorbate, S4, CK-MB 26300 pg/mL
[9] = With Ascorbate, S5, CK-MB 94600 pg/mL
[10] = With Ascorbate, S6, CK-MB 268750 pg/mL
[11] = With Ascorbate, S7, CK-MB 1500000 pg/mL

O=C1O[C@H]([C@@H](O)CO)C(O)=C1O [Ascorbic Acid, Ascorbic acid]
RLU ([1]; With Ascorbate (1 mM in HRP-Ab2 conjugate), Buffer, CK-MB 0 pg/mL): 1616 RLU and 1536 RLU and 1592 RLU | Mean RLU ([1]; With Ascorbate, Buffer, CK-MB 0 pg/mL): 1581 RLU | Mean RLU [1, 5]: 883 RLU | RLU [1, 5]: 948 RLU and 852 RLU and 848 RLU | Mean RLU [1, 6]: 4051 RLU | S/S1 [1, 6]: 4.59 | RLU [1, 6]: 4080 RLU and 3928 RLU and 4144 RLU | Mean RLU [1, 7]: 13295 RLU | S/S1 [1, 7]: 15.06 | RLU [1, 7]: 12756 RLU and 13108 RLU and 14020 RLU | Mean RLU [1, 8]: 40407 RLU | S/S1 [1, 8]: 45.78 | RLU [1, 8]: 41384 RLU and 39448 RLU and 40388 RLU | Mean RLU [1, 9]: 232489 RLU | S/S1 [1, 9]: 263.39 | RLU [1, 9]: 222832 RLU and 249468 RLU and 225168 RLU | Mean RLU [1, 10]: 1195177 RLU | S/S1 [1, 10]: 1354.05 | RLU [1, 10]: 1187736 RLU and 1121256 RLU and 1276540 RLU | Mean RLU [1, 11]: 3324829 RLU | S/S1 [1, 11]: 3766.80 | RLU [1, 11]: 3266772 RLU and 3290024 RLU and 3417692 RLU | effect of ascorbic acid incubation time on observed chemiluminescence [2]: does not appear to cause a significant effect | Mean RLU ([3]; HRP 0 ng/ml): 263 RLU | S/S0 ([3]; HRP 0 ng/ml): 1.0 | RLU ([3]; HRP 0 ng/ml): 256 RLU and 260 RLU and 272 RLU | Mean RLU ([3]; HRP 1 ng/ml): 6,988 RLU | S/S0 ([3]; HRP 1 ng/ml): 26.6 | RLU ([3]; HRP 1 ng/ml): 6,712 RLU and 6,844 RLU and 7,408 RLU | Mean RLU ([3]; HRP 10 ng/ml): 309,873 RLU | S/S0 ([3]; HRP 10 ng/ml): 1178.2 | RLU ([3]; HRP 10 ng/ml): 310,600 RLU and 278,320 RLU and 340,700 RLU | Mean RLU ([3]; HRP 100 ng/ml): 2,426,677 RLU | S/S0 ([3]; HRP 100 ng/ml): 9226.9 | RLU ([3]; HRP 100 ng/ml): 2,306,036 RLU and 2,477,760 RLU and 2,496,236 RLU | Mean RLU ([3]; HRP 250 ng/ml): 2,533,168 RLU | S/S0 ([3]; HRP 250 ng/ml): 9631.8 | RLU ([3]; HRP 250 ng/ml): 2,535,712 RLU and 2,523,068 RLU and 2,540,724 RLU | background decrease ([4]; ascorbic acid 150 μM prior to addition of trigger, LodeStars particles): ~300% | assay sensitivity ([4]; ascorbic acid in the assay reaction mixture, in words): significantly improves the assay sensitivity
